The text below walks through data of ChEMBL document CHEMBL2331077, “Sacchathridine A, a prostaglandin release inhibitor from Saccharothrix sp” (J Nat Prod, 2013).

The subject of assay [1] is SW982. The assay can be described thus: Growth inhibition of human SW982 cells up to 30 uM after 48 hrs by cell counting. The assay is classed as functional, cell-based.
Assay [2] has as its system SW982. The experiment in a line: Inhibition of PGE2 release from bradykinin-stimulated human SW982 cells by fluorescence assay. The assay is classed as functional, cell-based.

Active and inactive are the calls of the source. The calls are words filed in the database; no cut-off is given here.

In general, IC50 refers to the concentration that inhibits the measured activity by half. Regarding `COC1=C(C)C(=O)c2ccc(O[C@@H]3O[C@@H](C)[C@H](O)[C@@H](O)[C@H]3O)c(NNC(C)=O)c2C1=O` [SACCHATHRIDINE A], in assay [1], the “growth inhibition (GI)” value is “inactive”. In assay [2], the IC50 turned out to be 1 µM and the inhibition entry was “Dose-dependent effect”.

Turning to `CS(=O)(=O)c1ccc(-n2nc(C(F)(F)F)cc2-c2ccc(F)cc2)cc1` [SC-58125], in assay [2], inhibition was half-maximal at 0.033 µM (IC50).
